This is an account of results in ChEMBL document CHEMBL5726052, “Substituted triazoles useful as Axl inhibitors” (2019).

In this test the target is T1, Tyrosine-protein kinase receptor UFO (Homo sapiens, UniProt P30530).
T1 sequence (P30530 whole entry): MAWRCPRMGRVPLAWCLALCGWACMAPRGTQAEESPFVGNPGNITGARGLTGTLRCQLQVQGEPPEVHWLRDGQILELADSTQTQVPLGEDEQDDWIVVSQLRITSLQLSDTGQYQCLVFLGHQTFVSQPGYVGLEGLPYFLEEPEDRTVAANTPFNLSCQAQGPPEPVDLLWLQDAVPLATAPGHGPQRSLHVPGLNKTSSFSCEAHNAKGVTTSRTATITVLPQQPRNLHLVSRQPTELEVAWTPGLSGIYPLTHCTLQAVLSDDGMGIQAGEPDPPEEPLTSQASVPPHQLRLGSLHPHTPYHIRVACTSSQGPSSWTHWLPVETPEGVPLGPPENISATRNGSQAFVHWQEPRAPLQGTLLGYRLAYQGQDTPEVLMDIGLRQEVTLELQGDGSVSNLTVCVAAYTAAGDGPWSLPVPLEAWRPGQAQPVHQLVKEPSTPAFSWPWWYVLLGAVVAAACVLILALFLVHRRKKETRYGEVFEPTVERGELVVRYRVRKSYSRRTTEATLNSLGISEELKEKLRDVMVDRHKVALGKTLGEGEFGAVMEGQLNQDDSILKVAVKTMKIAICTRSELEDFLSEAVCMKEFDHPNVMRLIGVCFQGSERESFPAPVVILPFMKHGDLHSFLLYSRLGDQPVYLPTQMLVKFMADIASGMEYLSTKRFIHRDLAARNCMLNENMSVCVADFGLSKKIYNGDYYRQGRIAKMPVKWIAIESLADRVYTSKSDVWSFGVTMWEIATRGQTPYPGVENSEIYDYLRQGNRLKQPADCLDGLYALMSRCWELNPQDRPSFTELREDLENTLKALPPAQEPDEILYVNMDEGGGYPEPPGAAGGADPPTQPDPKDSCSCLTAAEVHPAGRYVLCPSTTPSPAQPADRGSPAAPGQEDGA
Description: PHOSPHO-AKT IN-CELL WESTERN ASSAY: The resulting chemiluminescence was read with a Luminomitor within 10 minutes to minimize changes in signal intensity. After reading the chemiluminescence, the cells were washed 1× with wash buffer and 1× with PBS by plate washer. The plate was tapped onto paper towels to remove excess liquid from wells and air-dried at ambient temperature for 5 minutes.

The structures appear in SMILES notation. pIC50: −log10 of the molar value.

As to `Nc1nc(Nc2ccc(OCCN3CCCCC3)cc2)n(-c2ccccc2)n1`, the negative-log IC50 (pIC50) is less than 4.70.

What is called pIC50 is the negative decadic logarithm of the IC50, by convention in mol/L.
